Source: the NIST ThermoML archive (doi:10.1021/je901067c)
Numbers after ± are expanded uncertainties.

Legend:
[1] = xn = mol fraction of the nth substance listed; details: 101 kPa, Liquid; for viscosity: Capillary tube (Ostwald / Ubbelohde) method
[2] = refractive index (Na D-line) (dimensionless); xn = mol fraction of the nth substance listed; details: 101 kPa, Liquid, Standard Abbe refractometry
[3] = 101 kPa, Liquid; for viscosity: Capillary tube (Ostwald / Ubbelohde) method
[4] = refractive index (Na D-line) (dimensionless); details: 101.33 kPa, Liquid, Standard Abbe refractometry

CCC(C)=O [butanone] + CCC(O)CC
x1 = 1
Details | mass density, 298.15 K [kg/m3] | mass density, 308.15 K [kg/m3] | mass density, 318.15 K [kg/m3] | refractive index, 298.15 K | refractive index, 308.15 K | refractive index, 318.15 K | viscosity, 298.15 K [mPa·s] | viscosity, 308.15 K [mPa·s] | viscosity, 318.15 K [mPa·s]
[1] | 799.76 ± 0.56 | 789.21 ± 0.58 | 778.52 ± 0.59 | – | – | – | 0.391 ± 0.005 | 0.361 ± 0.005 | 0.334 ± 0.0049
[2] | – | – | – | 1.375 ± 0.0009 | 1.37 ± 0.0009 | 1.3657 ± 0.0009 | – | – | –

CCC(C)=O [butanone] + CCCC(C)O
x1 = 1
Details | mass density, 298.15 K [kg/m3] | mass density, 308.15 K [kg/m3] | mass density, 318.15 K [kg/m3] | refractive index, 298.15 K | refractive index, 308.15 K | refractive index, 318.15 K | viscosity, 298.15 K [mPa·s] | viscosity, 308.15 K [mPa·s] | viscosity, 318.15 K [mPa·s]
[1] | 799.76 ± 0.56 | 789.21 ± 0.58 | 778.52 ± 0.59 | – | – | – | 0.391 ± 0.005 | 0.361 ± 0.005 | 0.334 ± 0.0049
[2] | – | – | – | 1.375 ± 0.0009 | 1.37 ± 0.0009 | 1.3657 ± 0.0009 | – | – | –

CCCCCO [pentan-1-ol] + CCC(C)=O
x2 = 0
Details | mass density, 298.15 K [kg/m3] | mass density, 308.15 K [kg/m3] | mass density, 318.15 K [kg/m3] | refractive index, 298.15 K | refractive index, 308.15 K | refractive index, 318.15 K | viscosity, 298.15 K [mPa·s] | viscosity, 308.15 K [mPa·s] | viscosity, 318.15 K [mPa·s]
[1] | 810.85 ± 0.55 | 803.45 ± 0.56 | 795.9 ± 0.57 | – | – | – | 3.54 ± 0.026 | 2.658 ± 0.02 | 2.288 ± 0.017
[2] | – | – | – | 1.4068 ± 0.0009 | 1.4031 ± 0.0009 | 1.3996 ± 0.0009 | – | – | –

CCC(O)CC [3-pentanol]
Details | mass density, 298.15 K [kg/m3] | mass density, 308.15 K [kg/m3] | mass density, 318.15 K [kg/m3] | refractive index, 298.15 K | refractive index, 308.15 K | refractive index, 318.15 K | viscosity, 298.15 K [mPa·s] | viscosity, 308.15 K [mPa·s] | viscosity, 318.15 K [mPa·s]
[3] | 815.79 ± 0.54 | 806.91 ± 0.56 | 797.66 ± 0.57 | – | – | – | 4.625 ± 0.034 | 2.864 ± 0.022 | 1.902 ± 0.015
[4] | – | – | – | 1.4047 ± 0.0009 | 1.4029 ± 0.0009 | 1.3981 ± 0.0009 | – | – | –

CCCC(C)O (stereo not drawn) [pentan-2-ol]
Details | mass density, 298.15 K [kg/m3] | mass density, 308.15 K [kg/m3] | mass density, 318.15 K [kg/m3] | refractive index, 298.15 K | refractive index, 308.15 K | refractive index, 318.15 K | viscosity, 298.15 K [mPa·s] | viscosity, 308.15 K [mPa·s] | viscosity, 318.15 K [mPa·s]
[3] | 805.3 ± 0.56 | 797 ± 0.57 | 788.37 ± 0.58 | – | – | – | 3.478 ± 0.026 | 2.361 ± 0.018 | 1.772 ± 0.014
[4] | – | – | – | 1.4032 ± 0.0009 | 1.399 ± 0.0009 | 1.395 ± 0.0009 | – | – | –

CCC(C)=O [butanone]
Details | mass density, 298.15 K [kg/m3] | mass density, 308.15 K [kg/m3] | mass density, 318.15 K [kg/m3] | refractive index, 298.15 K | refractive index, 308.15 K | refractive index, 318.15 K | viscosity, 298.15 K [mPa·s] | viscosity, 308.15 K [mPa·s] | viscosity, 318.15 K [mPa·s]
[3] | 799.76 ± 0.56 | 789.21 ± 0.58 | 778.52 ± 0.59 | – | – | – | 0.391 ± 0.005 | 0.361 ± 0.005 | 0.334 ± 0.005
[4] | – | – | – | 1.375 ± 0.0009 | 1.37 ± 0.0009 | 1.3657 ± 0.0009 | – | – | –

CCCCCO [pentan-1-ol]
Details | mass density, 298.15 K [kg/m3] | mass density, 308.15 K [kg/m3] | mass density, 318.15 K [kg/m3] | refractive index, 298.15 K | refractive index, 308.15 K | refractive index, 318.15 K | viscosity, 298.15 K [mPa·s] | viscosity, 308.15 K [mPa·s] | viscosity, 318.15 K [mPa·s]
[3] | 810.85 ± 0.55 | 803.45 ± 0.56 | 795.9 ± 0.57 | – | – | – | 3.54 ± 0.026 | 2.658 ± 0.02 | 2.288 ± 0.017
[4] | – | – | – | 1.4068 ± 0.0009 | 1.4031 ± 0.0009 | 1.3996 ± 0.0009 | – | – | –
